Data from ChEMBL document CHEMBL1909046, “DrugMatrix in vitro pharmacology data”.

Columns and labels:
[1] = biological target: T1, Type-2 angiotensin II receptor (Homo sapiens, UniProt P50052); assay type: cell-based; conditions: cho-k1; note: in other assays of this panel Not Active means under 50% inhibition at 10 µM
T1 sequence (P50052 whole entry): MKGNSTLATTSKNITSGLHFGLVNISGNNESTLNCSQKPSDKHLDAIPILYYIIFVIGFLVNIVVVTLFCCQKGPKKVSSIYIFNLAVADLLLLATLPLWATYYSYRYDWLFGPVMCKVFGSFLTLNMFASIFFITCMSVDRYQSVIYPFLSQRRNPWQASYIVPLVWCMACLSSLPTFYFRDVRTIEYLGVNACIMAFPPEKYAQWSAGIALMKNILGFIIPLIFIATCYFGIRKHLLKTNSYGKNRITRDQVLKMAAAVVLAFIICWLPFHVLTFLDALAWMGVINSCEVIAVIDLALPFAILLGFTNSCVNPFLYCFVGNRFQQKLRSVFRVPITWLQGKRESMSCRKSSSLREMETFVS

[2] = DRUGMATRIX: Calcium Channel Type L, Dihydropyridine radioligand binding (ligand: [3H] Nitrendipine); assay type: cell membranes, Rattus norvegicus, Wistar, Cerebral cortex, Membrane; conditions: Not Active = under 50% inhibition at 10 µM
Cannabinoid receptor 1 = Cannabinoid receptor 1 (Homo sapiens, UniProt P21554); assay type: cell membranes, Membrane; conditions: chem-1; note: in other assays of this panel Not Active means under 50% inhibition at 10 µM
Chain of Cannabinoid receptor 1 (P21554 whole entry): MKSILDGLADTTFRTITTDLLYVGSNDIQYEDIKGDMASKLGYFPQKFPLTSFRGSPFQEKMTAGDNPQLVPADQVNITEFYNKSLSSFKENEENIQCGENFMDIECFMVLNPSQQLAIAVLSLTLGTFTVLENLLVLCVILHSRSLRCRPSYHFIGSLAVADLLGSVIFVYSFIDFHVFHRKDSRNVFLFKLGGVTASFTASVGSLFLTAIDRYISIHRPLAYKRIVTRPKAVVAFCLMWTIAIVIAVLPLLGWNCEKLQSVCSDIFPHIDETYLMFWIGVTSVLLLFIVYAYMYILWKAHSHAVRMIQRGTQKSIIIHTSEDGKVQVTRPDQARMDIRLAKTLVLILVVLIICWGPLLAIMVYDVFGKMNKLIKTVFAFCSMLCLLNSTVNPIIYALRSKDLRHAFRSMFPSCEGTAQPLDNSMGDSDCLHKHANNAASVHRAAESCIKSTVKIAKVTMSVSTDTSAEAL

D(3) dopamine receptor = D(3) dopamine receptor (Homo sapiens, UniProt P35462); assay: DRUGMATRIX: Dopamine D3 radioligand binding (ligand: [3H] Spiperone); assay type: cell membranes, CHO, Membrane; conditions: cho
Chain of D(3) dopamine receptor (P35462 whole entry): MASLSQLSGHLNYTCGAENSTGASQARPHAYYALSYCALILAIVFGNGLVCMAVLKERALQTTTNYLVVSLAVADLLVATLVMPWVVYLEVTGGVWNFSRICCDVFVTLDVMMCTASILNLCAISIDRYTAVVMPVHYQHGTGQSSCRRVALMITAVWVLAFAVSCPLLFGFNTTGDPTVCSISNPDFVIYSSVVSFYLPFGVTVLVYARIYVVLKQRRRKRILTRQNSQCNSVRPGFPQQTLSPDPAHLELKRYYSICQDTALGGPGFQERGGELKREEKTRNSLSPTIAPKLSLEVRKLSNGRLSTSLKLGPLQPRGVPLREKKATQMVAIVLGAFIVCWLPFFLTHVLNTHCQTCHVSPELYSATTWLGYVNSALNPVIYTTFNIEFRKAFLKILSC

Glycine receptor = Glycine receptor (Rattus norvegicus, UniProt P22771+P24524+P07727+P20781); assay type: cell membranes, Wistar, Spinal cord, Membrane; note: in other assays of this panel Not Active means under 50% inhibition at 10 µM
[3] = DRUGMATRIX: Leukotriene, BLT (LTB4) radioligand binding (ligand: [3H]LTB4); assay type: cell membranes, Membrane; conditions: u-937; Not Active = under 50% inhibition at 10 µM
[4] = biological target: T2, Polyunsaturated fatty acid lipoxygenase ALOX15 (Oryctolagus cuniculus, UniProt P12530); assay: biochemical; assay type: tissue-based, Reticulocytes; conditions: reticulocytes;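 note: inhibition of 15-lipoxygenase enzyme activity measured with linoleic acid as the substrate; in other assays of this panel Not Active means under 50% inhibition at 10 µM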
T2 sequence (P12530 whole entry): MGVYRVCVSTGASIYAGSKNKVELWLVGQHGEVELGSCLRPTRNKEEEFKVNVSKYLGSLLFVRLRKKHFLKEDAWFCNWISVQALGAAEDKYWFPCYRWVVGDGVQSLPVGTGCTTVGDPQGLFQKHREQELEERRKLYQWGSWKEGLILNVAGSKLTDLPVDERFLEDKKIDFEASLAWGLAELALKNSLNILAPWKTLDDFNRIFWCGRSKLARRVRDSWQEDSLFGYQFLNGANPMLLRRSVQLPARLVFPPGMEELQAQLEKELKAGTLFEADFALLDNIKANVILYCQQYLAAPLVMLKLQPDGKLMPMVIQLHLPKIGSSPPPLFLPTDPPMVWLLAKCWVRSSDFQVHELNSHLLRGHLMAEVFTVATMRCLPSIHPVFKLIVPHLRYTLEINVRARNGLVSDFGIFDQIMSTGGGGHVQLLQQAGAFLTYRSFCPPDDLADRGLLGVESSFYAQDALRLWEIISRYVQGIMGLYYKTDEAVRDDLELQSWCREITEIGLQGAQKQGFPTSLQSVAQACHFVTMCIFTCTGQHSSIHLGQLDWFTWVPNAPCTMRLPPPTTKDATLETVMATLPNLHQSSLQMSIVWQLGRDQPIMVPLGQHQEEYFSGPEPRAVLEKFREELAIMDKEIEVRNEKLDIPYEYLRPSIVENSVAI

Melanocortin receptor 4 = Melanocortin receptor 4 (Homo sapiens, UniProt P32245); assay type: cell membranes, Membrane; conditions: hek293; note: in other assays of this panel Not Active means under 50% inhibition at 10 µM
Chain of Melanocortin receptor 4 (P32245 whole entry): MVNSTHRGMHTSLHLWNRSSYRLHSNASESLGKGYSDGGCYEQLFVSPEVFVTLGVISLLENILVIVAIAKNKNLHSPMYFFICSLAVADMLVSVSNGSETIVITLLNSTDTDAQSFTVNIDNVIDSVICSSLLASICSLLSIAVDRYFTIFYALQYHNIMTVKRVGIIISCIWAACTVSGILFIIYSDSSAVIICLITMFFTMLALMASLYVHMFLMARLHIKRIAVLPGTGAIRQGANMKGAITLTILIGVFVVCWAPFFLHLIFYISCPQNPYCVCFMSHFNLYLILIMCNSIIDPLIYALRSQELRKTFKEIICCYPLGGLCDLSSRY

[5] = biological target: T3, Nitric oxide synthase, inducible (Mus musculus, UniProt P29477); design: species or system Escherichia coli
T3 sequence (P29477 whole entry): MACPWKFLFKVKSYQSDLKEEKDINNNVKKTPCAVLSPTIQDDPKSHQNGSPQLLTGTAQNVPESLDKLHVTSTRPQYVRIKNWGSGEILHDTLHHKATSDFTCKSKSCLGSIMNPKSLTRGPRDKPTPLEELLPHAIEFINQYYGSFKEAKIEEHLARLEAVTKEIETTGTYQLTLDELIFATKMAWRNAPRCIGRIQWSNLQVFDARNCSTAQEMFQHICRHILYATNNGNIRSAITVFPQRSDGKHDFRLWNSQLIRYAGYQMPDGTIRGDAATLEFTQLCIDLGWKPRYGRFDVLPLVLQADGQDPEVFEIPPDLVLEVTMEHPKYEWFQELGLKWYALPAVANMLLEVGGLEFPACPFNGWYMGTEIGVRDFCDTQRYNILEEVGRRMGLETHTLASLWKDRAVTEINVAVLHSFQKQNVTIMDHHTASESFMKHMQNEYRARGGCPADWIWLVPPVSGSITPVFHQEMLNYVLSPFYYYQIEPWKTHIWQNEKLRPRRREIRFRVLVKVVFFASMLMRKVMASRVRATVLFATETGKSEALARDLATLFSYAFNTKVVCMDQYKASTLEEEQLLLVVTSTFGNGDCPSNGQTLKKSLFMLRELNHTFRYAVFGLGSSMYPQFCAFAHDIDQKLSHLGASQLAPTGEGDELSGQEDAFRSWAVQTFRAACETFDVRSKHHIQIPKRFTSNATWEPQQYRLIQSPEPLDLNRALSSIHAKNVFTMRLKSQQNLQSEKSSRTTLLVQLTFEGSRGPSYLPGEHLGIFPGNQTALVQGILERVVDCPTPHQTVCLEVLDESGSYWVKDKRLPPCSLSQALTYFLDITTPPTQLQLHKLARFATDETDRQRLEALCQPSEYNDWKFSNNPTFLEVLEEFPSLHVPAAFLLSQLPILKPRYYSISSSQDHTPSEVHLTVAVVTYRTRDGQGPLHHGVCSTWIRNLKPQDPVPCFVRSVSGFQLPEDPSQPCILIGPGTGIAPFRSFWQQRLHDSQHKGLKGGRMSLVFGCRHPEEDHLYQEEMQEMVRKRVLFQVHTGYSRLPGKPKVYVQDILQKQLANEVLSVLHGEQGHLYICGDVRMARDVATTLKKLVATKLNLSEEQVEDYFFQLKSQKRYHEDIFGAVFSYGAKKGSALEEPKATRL

[6] = biological target: Mitogen-activated protein kinase 14 (Homo sapiens, UniProt Q16539); design: species or system Escherichia coli
Chain of Mitogen-activated protein kinase 14 (Q16539 whole entry): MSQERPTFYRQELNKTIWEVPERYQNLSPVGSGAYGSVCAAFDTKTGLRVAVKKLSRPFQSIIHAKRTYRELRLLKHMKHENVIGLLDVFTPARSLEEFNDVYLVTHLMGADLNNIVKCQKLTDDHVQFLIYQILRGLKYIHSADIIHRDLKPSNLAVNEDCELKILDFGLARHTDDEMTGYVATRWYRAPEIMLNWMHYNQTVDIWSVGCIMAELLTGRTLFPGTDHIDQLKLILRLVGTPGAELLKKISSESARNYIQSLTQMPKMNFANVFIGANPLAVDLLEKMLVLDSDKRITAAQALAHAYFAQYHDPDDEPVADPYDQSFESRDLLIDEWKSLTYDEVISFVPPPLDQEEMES

[7] = biological target: Tyrosine-protein kinase Lck (Homo sapiens, UniProt P06239); assay: DRUGMATRIX: Protein Tyrosine Kinase, LCK enzyme inhibition (substrate: Poly(Glu:Tyr)); assay type: cell-based, Insect cells; conditions: insect cells; Not Active = under 50% inhibition at 10 µM
Chain of Tyrosine-protein kinase Lck (P06239 whole entry): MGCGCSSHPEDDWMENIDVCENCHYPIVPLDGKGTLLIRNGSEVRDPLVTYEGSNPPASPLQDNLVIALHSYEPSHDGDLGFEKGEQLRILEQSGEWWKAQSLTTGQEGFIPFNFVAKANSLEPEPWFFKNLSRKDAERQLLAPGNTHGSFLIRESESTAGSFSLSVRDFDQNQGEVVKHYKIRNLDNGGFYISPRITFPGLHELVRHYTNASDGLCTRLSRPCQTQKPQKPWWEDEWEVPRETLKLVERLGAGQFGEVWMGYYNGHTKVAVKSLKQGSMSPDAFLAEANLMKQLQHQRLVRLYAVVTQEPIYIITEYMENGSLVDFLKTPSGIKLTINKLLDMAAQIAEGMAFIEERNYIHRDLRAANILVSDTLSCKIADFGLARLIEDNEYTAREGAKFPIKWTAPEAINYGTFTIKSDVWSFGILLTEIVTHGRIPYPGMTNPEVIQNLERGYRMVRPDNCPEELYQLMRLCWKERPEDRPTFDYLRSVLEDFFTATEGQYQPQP

Cytochrome P450 2E1 = Cytochrome P450 2E1 (Homo sapiens, UniProt P05181); conditions: bti-tn-5b1-4; note: in other assays of this panel Not Active means under 50% inhibition at 10 µM
Chain of Cytochrome P450 2E1 (P05181 whole entry): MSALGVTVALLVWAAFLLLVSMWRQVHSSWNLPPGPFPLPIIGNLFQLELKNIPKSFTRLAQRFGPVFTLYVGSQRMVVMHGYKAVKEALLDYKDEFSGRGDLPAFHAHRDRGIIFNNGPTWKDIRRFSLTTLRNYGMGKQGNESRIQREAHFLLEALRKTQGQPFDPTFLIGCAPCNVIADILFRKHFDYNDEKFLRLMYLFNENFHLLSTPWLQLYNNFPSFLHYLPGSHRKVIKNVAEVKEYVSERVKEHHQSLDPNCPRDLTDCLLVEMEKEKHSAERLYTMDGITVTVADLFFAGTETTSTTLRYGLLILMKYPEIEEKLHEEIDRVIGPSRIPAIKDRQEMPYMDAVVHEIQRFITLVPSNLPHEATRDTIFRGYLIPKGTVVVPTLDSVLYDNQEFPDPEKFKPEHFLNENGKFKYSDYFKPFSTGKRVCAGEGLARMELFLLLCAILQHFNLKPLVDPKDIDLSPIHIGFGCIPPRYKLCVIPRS

SMILES | IC50 [1] | IC50 [2] | Ki [2] | IC50 (Cannabinoid receptor 1) | IC50 (D(3) dopamine receptor) | IC50 (Glycine receptor) | IC50 [3] | Ki [3] | IC50 [4] | IC50 (Melanocortin receptor 4) | IC50 [5] | IC50 [6] | IC50 [7] | IC50 (Cytochrome P450 2E1) | Ki (Cytochrome P450 2E1) | IC50 ([2]; read-out: IC50) | Ki ([2]; read-out: Ki)
CC1COc2c(N3CCN(C)CC3)c(F)cc3c(=O)c(C(=O)O)cn1c23 (stereo not given) [OFLOXACIN] | Not Active | Not Active | Not Active | Not Active | Not Active | Not Active | Not Active | Not Active | Not Active | Not Active | Not Active | Not Active | Not Active | Not Active | Not Active |  | 
Oc1cccc2cccnc12 [OXYQUINOLINE] | Not Active | Not Active | Not Active | Not Active | Not Active | Not Active | Not Active | Not Active | Not Active | Not Active | Not Active | Not Active | Not Active | Not Active | Not Active |  | 
CN(C)[C@@H]1C(O)=C(C(N)=O)C(=O)[C@@]2(O)C(O)=C3C(=O)c4c(O)cccc4[C@@](C)(O)[C@H]3[C@H](O)[C@@H]12 [OXYTETRACYCLINE] | Not Active | Not Active | Not Active | Not Active | Not Active | Not Active | Not Active | Not Active | Not Active | Not Active | Not Active | Not Active | Not Active | Not Active | Not Active |  | 
Fc1ccc([C@@H]2CCNC[C@H]2COc2ccc3c(c2)OCO3)cc1 [PAROXETINE] | Not Active |  |  | Not Active | Not Active | Not Active | Not Active | Not Active | Not Active | Not Active | Not Active | Not Active | Not Active | Not Active | Not Active | 1480 nM | 949 nM
CC(C)(S)[C@@H](N)C(=O)O [PENICILLAMINE] | Not Active | Not Active | Not Active | Not Active | Not Active | Not Active | Not Active | Not Active | Not Active | Not Active | Not Active | Not Active | Not Active | Not Active | Not Active |  | 
CC(=O)CCCCn1c(=O)c2c(ncn2C)n(C)c1=O [PENTOXIFYLLINE] | Not Active | Not Active | Not Active | Not Active | Not Active | Not Active | Not Active | Not Active | Not Active | Not Active | Not Active | Not Active | Not Active | Not Active | Not Active |  | 
O=C1NC(=O)C(c2ccccc2)(c2ccccc2)N1 [PHENYTOIN] | Not Active | Not Active | Not Active | Not Active | Not Active | Not Active | Not Active | Not Active | Not Active | Not Active | Not Active | Not Active | Not Active | Not Active | Not Active |  | 
CNC(=O)Oc1ccc2c(c1)[C@]1(C)CCN(C)[C@@H]1N2C [PHYSOSTIGMINE] | Not Active | Not Active | Not Active | Not Active | Not Active | Not Active | Not Active | Not Active | Not Active | Not Active | Not Active | Not Active | Not Active | Not Active | Not Active |  | 
C=C(C)[C@@H]1[C@H]2OC(=O)[C@@H]1[C@]1(O)C[C@H]3O[C@]34C(=O)O[C@H]2[C@]14C [PICROTOXININ] | Not Active | Not Active | Not Active | Not Active | Not Active | Not Active | Not Active | Not Active | Not Active | Not Active | Not Active | Not Active | Not Active | Not Active | Not Active |  | 
